According to patent publication US20110105517A1, “THERAPEUTIC AGENT FOR AMYOTROPHIC LATERAL SCLEROSIS” (priority 2008, published 2011):
Where a name gives a salt, the structure may show the parent alone.

Key:
HeLa cells = experiment: Cell viability assay 1: oxidative stress (menadione)-induced cell death in non-neuronal cells; assay type: cell-based; details: pre-treatment 2.5, 5, 10 μM for 24 h; menadione 20-80 μM for 4 h; AlamarBlue; versus DMSO alone; FIG. 1
Description: HeLa cells (1.0×10^6) were plated in 75 cm^2 flask and were cultured in the presence of 5% CO2 at 37° C. for 16 hours. Bromocriptine mesylate in DMSO was then added to the medium at the final concentrations of 2.5, 5 and 10 μM. The amount of DMSO used in each samples were adjusted to that used in the 10 μM sample. Cells were cultured for additional 24 hours (bromocriptine mesylate treatment). As a negative control, DMSO without bromocriptine mesylate was added. Menadione was then added to the HeLa cells treated with bromocriptine mesylate at the final concentrations of 0, 20, 40, 60 and 80 μM and the cells were further incubated in 5% CO2, at 37° C. (oxidative stress treatment). As a negative control, 0.1% Triton X-100/DMEM/10% FBS was added in place of menadione. After 4 hours of oxidative stress treatment, the medium was replaced with that containing AlamarBlue, and the cell culture was resumed in 5% CO2, at 37° C. After 16 hours of incubation, the number of viable cells was counted by measuring the fluorescence at excitation wave length 530 nm/emission wave length 580 nm, using the fluorescence plate reader.
The X-axis of the graph represents menadione concentration (μM), while the Y-axis of the graph represents cell viability (%). The Y-axis values under each condition are shown as viability relative to the no menadione treatment (0 μM) control which is set at 100%.

[1] = system: differentiated SH-SY5Y cells; experiment: Cell viability assay 2: oxidative stress (menadione)-induced cell death in differentiated neuronal cells; assay type: cell-based, human; details: retinoic acid-differentiated cells; pre-treatment 5, 10, 20, 40 μM for 24 h; menadione 20-50 μM for 4 h; AlamarBlue; versus DMSO alone; FIG. 2
Description: SH-SY5Y cells were suspended in DMEM supplemented with 10% FBS, were plated at 1.0×10^4 cells/well in 96 well microtiter plate, and were incubated in 5% CO2 at 37° C. for 24 hours. The medium was then replaced with DMEM supplemented with 10% FBS and 10 μM all-trans retinoic acid (RA) (DMEM/FBS/RA), and after 5 days, bromocriptine mesylate in DMSO was added to the medium at the final concentrations of 5, 10, 20 and 40 μM. The amount of DMSO used in each samples were adjusted to that used in the 40 μM sample. The cells were cultured for additional 24 hours (bromocriptine mesylate treatment). As a negative control, DMSO without bromocriptine mesylate was added. Menadione was then added to the SH-SY5Y cells treated either with DMSO alone or bromocriptine mesylate at the final concentrations of 0, 20, 30, 40, and 50 μM, and cultured in 5% CO2 at 37° C. (oxidative stress treatment). As a negative control, 0.1% Triton X-100/DMEM/10% FBS was added. After 4 hours of oxidative stress treatment, the medium was replaced with that containing AlamarBlue, and the cell culture was resumed in 5% CO2, at 37° C. After 16 hours of incubation, the number of viable cells was counted by measuring the fluorescence at excitation wave length 530 nm/emission wave length 580 nm, using the fluorescence plate reader. […]

ALS-SOD1^H46R mouse [2] = experiment: Efficacy test in vivo: motor function in vertical climb test; details: 10 mg/kg i.p. once a day from onset of symptoms; n=5; non-administered group deteriorated significantly; FIG. 3
Description: (§1) In this test, ALS-SOD1^H46R mouse carrying the mutation in the SOD1 gene (SOD1^H46R) (ALS1) was used. The mice were housed at 23° C. with a 12 hr light/dark cycle. Bromocriptine mesylate was suspended in 0.5% carboxymethylcellulose sodium (CMC-Na). The administration of bromocriptine mesylate was initiated when the neurological symptoms was first observed (first manifestation of the illness) in the ALS-SOD1^H46R mouse in the balance beam test. The dosage of bromocriptine mesylate was 10 mg or 1 mg per 1 kg of body weight in each of the animals, and administered by intraperitoneal injection once a day until the animals died (group treated with bromocriptine mesylate). As the negative control, the mice were administered with 0.5% CMC-Na (5 ml/kg) (group not treated with bromocriptine mesylate). Balance beam test (stainless beam: 50 cm long, 0.9 cm wide) was employed to evaluate the appearance of neurological symptoms. The evaluation of symptoms was carried out in 5 grades. Grade 3 was considered to be the first manifestation of the symptoms. The evaluation criteria used are shown below.
The motor functions of mice in bromocriptine mesylate administered group and non-administered group were evaluated by vertical climb test (stainless bar: 50 cm long, 0.9 cm wide). […] The best score among the 5 test results was recorded as the motor function value. […]

ALS-SOD1^H46R mouse [3] = experiment: Efficacy test in vivo: survival after the onset of the disease; details: i.p. once a day from onset, non-administered group 27.8±2.1 day, FIG. 4
Description: as §1

CC(C)C[C@H]1C(=O)N2CCC[C@H]2[C@]2(O)O[C@](NC(=O)[C@@H]3C=C4c5cccc6[nH]c(Br)c(c56)C[C@H]4N(C)C3)(C(C)C)C(=O)N12 [bromocriptine mesylate]
viabilities of HeLa cells exposed to oxidative stress by menadione (HeLa cells): increased depending on the concentration of bromocriptine mesylate | viabilities of SH-SY5Y cells exposed to oxidative stress by menadione [1]: increased depending on the concentration of bromocriptine mesylate | motor function (vertical climb test) at 21 weeks of age (ALS-SOD1^H46R mouse [2]): largely unchanged | overall survival after the onset of the disease (ALS-SOD1^H46R mouse [3]; 1 mg/kg, n=4): 35.3 ± 6.0 days | overall survival after the onset of the disease (ALS-SOD1^H46R mouse [3]; 10 mg/kg, n=5): 38.0 ± 2.9 days
